Data set [1] deals with HeLaS3. Nature of the data set: SRB drug sensitivity, HeLaS3 (Compound-A-sensitive). The data set is classed as cell-based. Conditions: Homo sapiens, HeLa S3, 72 hours with agent.
Data set [2] deals with ABCG2. Put plainly: SRB drug sensitivity, PC-13 transfected with ABCG2 (clone 3). Conditions: human; PC-13/ABCG2-3; average ± standard error of three independent experiments. It is filed as cell-based, human. How it is done:
(§1) Test cells in the logarithmic growth phase were dispensed into wells of 96-well plate at 1×10^3 cells/well. After subculture for 24 hours in a CO2 incubator, a serial diluted agent was added to each well. After further incubation for 72 hours, the cells were fixed with trichloroacetic acid (TCA) and the proteins in the cells were stained by 0.4% sulforhodamine B solution. The samples were eluted by 10 mM Tris-HCl for 1 hour, and each well was measured at 560 nm with a 450 nm reference, by a SPECTRAmax 250 plate reader (Molecular Devices Corp.).
(§2) PC-13 cells were transfected with the ABCG2 expression plasmids using Effectene Transfection Reagent (QIAGEN). The experiment was performed according to the attached procedural manual. As a control experiment, other PC-13 cells were transfected with vector alone without the ABCG2 sequence. The two experiments were conducted simultaneously. Two days after the transfection, the original media were replaced with selection media containing 0.2 mg/ml of Geneticin (GIBCO BRL). By culture for a long time under this condition, stable transfectant clones with the introduced plasmids were selected. Two weeks from the transfection, emerging colonies were picked and expression of ABCG2 in the cells was examined by Northern Blot analysis.

Data set [3] has as its system PC-13/ABCG2-3. Described as above. It is filed as cell-based, human. Conditions: IC50 PC-13/ABCG2-3 divided by IC50 of vector cells. As for the experimental part: as §1, §2
Data set [4] relates to LY/NR2. Nature of the data set: SRB drug sensitivity, Compound-A-resistant LY/NR2. It is filed as cell-based, mouse. Conditions: for RR: Relative Resistance: IC50 LY/NR2 divided by IC50 LY; for IC50: Mus musculus, LY/NR2, SRB, 72 hours with agent. An excerpt: An emerging colony was isolated as described above and designated as LY/NR2.
Data set [5] deals with HCT116. Put plainly: SRB drug sensitivity, HCT116 parental cells. Conditions: Homo sapiens, HCT-116, 72 hours with agent. The data set is classed as cell-based.
Data set [6] concerns PC13/NR13. Nature of the data set: SRB drug sensitivity, Compound-A-resistant PC-13/NR13. It is filed as cell-based, human. Conditions: for IC50: Homo sapiens, PC-13, PC13/NR13, SRB, 72 hours with agent; for RR: Relative Resistance: IC50 PC13/NR13 divided by IC50 PC13.
In data set [7] the test system is PC-13/Vector. Nature of the data set: SRB drug sensitivity, PC-13 transfected with vector alone. Conditions: Homo sapiens, average ± standard error of three independent experiments. The data set is classed as cell-based. How it is done: as §1, §2
The subject of data set [8] is PC-13 cell lines with introduced ABCG2. Put plainly: SRB drug sensitivity, PC-13 cell lines with introduced ABCG2 (stated jointly). The data set is classed as cell-based, human. Conditions: PC-13 cell lines with introduced ABCG2, versus vector alone. As for the experimental part:
as §1, §2

The subject of data set [9] is LY/NR1. Nature of the data set: SRB drug sensitivity, Compound-A-resistant LY/NR1. The data set is classed as cell-based, mouse. Conditions: for RR: Relative Resistance: IC50 LY/NR1 divided by IC50 LY; for IC50: Mus musculus, LY/NR1, SRB, 72 hours with agent. The source says: A colony that grew under these conditions was isolated using a cloning ring (Asahi Techno Glass Corporation) and designated as LY/NR1.

Data set [10] concerns HCT116/NR1. Put plainly: SRB drug sensitivity, Compound-A-resistant HCT116/NR1. It is filed as cell-based, human. Conditions: for IC50: Homo sapiens, HCT-116, HCT116/NR1, SRB, 72 hours with agent; for RR: Relative Resistance: IC50 HCT116/NR1 divided by IC50 HCT116. The source says:
An emerging colony was isolated and designated as HCT116/NR1.

The test system of data set [11] is LY. Put plainly: SRB drug sensitivity, LY parental fibroblasts. The data set is classed as cell-based. Conditions: Mus musculus, Fibroblast, 72 hours with agent.
Data set [12] deals with PC13. Put plainly: SRB drug sensitivity, PC-13 parental cells. It is filed as cell-based. Conditions: Homo sapiens, 72 hours with agent.
Data set [13] concerns HeLa#7. Put plainly: SRB drug sensitivity, spontaneously resistant HeLa#7. The data set is classed as cell-based, human. Conditions: for IC50: Homo sapiens, HeLa#7, SRB, 72 hours with agent; for RR: Relative Resistance: IC50 HeLa#7 divided by IC50 HeLaS3.
Data set [14] deals with ABCG2. Nature of the data set: SRB drug sensitivity, PC-13 transfected with ABCG2 (clone 2). The data set is classed as cell-based, human. Conditions: human; PC-13/ABCG2-2; average ± standard error of three independent experiments. As for the experimental part: as §1, §2
Data set [15] relates to PC-13/ABCG2-2. The description is as above. The data set is classed as cell-based, human. Conditions: IC50 PC-13/ABCG2-2 divided by IC50 of vector cells. How it is done: as §1, §2
For data set [16], the system named is MCF-7/R7. Nature of the data set: SRB drug sensitivity, MCF-7 with introduced ABCG2 of the present invention. It is filed as cell-based, human. Conditions: MCF-7/R7 (ABCG2 of the present invention), FIG. 6. How it is done:
(§3) The full length human ABCG2 cDNA of the present invention prepared in Example 5 was inserted into a plasmid for expression in mammalian cells, followed by transfection of human breast cancer cells, MCF-7 cells, with the ABCG2 expression plasmid using Effectene Transfection Reagent (QIAGEN). Likewise, human breast cancer cells, MCF-7 cells, were transfected with a plasmid including the ABCG2-482T cDNA prepared in Example 10. The experiments were carried out according to an attached procedural manual. As a control experiment, the MCF-7 cells were also transfected with vector alone. The three experiments were conducted simultaneously. Two days from the transfection, the original media were replaced with selective media containing 900 μg/ml of Geneticin (GIBCO BRL). By culture over a prolonged term under this condition, stable transfectant clones with introduced plasmid were selected. Two to three weeks from the transfection, emerging colonies were picked and the expression of ABCG2 in the cells was examined by Northern Blot analysis. Northern Blot analysis was performed as described in Example 4: 8 μg of total RNA prepared from each clone using RNeasy mini kit (QIAGEN) was separated on a formaldehyde denatured agarose gel, followed by analysis using the human ABCG2 cDNA fragment of the present invention as a probe.
(§4) The drug sensitivity of the stable transfectant clones which were established from MCF-7 cells with introduced ABCG2- or ABCG2-482T-expression plasmid, was measured using SRB method as described in Example 2 and the sensitivity of each transfectant to drugs was shown as a relative resistance to the cells with introduced vector alone (FIG. 6).

Data set [17] concerns MCF-7/T8. Put plainly: SRB drug sensitivity, MCF-7 with introduced ABCG2-482T. The data set is classed as cell-based, human. Conditions: MCF-7/T8 (ABCG2-482T). How it is done:
as §3, §4

SMILES strings stand for the structures.

The results in this text go back to US20070141619A1, “DRUG RESISTANCE-ASSOCIATED GENE AND USE THEREOF” (BANYU PHARMACEUTICAL CO., Ltd., priority 2000, published 2007).

For `CC[C@@]1(O)C(=O)OCc2c1cc1n(c2=O)Cc2cc3ccccc3nc2-1` [Camptothecin], the IC50 – broadly, the midpoint of a concentration-inhibition curve – in [1] turned out to be 14 nM; in [4] it was 380 nM; in data set [5], 9.4 nM; in [6] it was 29 nM; in data set [7], 43 ± 11 nM; in data set [9], 58 nM. Also, the IC50 was determined as 17 nM in [10], 46 nM in data set [11], 38 nM in data set [12] and 38 nM in data set [13]. Further, the IC50 at 72 h in data set [2] is 52 ± 8 nM; in [14], 29 ± 5 nM. For the same molecule, the “Rel. Res. (relative resistance)” value in data set [3] is on record as 1.2; in [15] it was 0.67. Moreover, the “RR: Relative Resistance” value in data set [4] is 8.2; in data set [6], 0.76; in data set [9], 1.3; in [10] it was 1.8; in data set [13] it was 2.7. Moreover, in data set [8], the “resistance of cells in which ABCG2 was forcedly expressed” value (“resistance of cells” below) is on record as “did not display remarkable resistance”.
As for `COc1cccc2c1C(=O)c1c(O)c3c(c(O)c1C2=O)C[C@@](O)(C(C)=O)C[C@@H]3O[C@H]1C[C@H](N)[C@H](O)[C@H](C)O1` [Daunorubicin], the results for the “relative resistance to the cells with introduced vector alone” value in [16] and in data set [17] (FIG. 6) were “no resistance” and 5.1 fold, respectively.
With `COc1cccc2c1C(=O)c1c(O)c3c(c(O)c1C2=O)C[C@@](O)(C(=O)CO)C[C@@H]3O[C@H]1C[C@H](N)[C@H](O)[C@H](C)O1` [Doxorubicin], the IC50 stood at 35 nM in data set [1]; 190 nM in [4]; 25 nM in data set [5]; 70 nM in [6]; 67 nM in [9]; 59 nM in data set [10]. For the same molecule, the IC50 in data set [11] is 43 nM; in data set [12], 28 nM; in [13], 29 nM. Moreover, the “RR: Relative Resistance” value in data set [4] was determined as 4.5; in data set [6], 2.5; in data set [9], 1.6; in [10], 2.3; in [13], 0.81. Further, the “relative resistance to the cells with introduced vector alone” value in [16] was “no resistance”; in data set [17] (FIG. 6, listed as Adriamycin), 9.6 fold; in data set [17] (FIG. 6, listed as adriamycin), “showed resistance”. Moreover, the “resistance of cells” value in [8] is listed as “not resistant”.
On to `COc1cc([C@@H]2c3cc4c(cc3[C@@H](O[C@@H]3O[C@@H]5CO[C@@H](C)O[C@H]5[C@H](O)[C@H]3O)[C@H]3COC(=O)[C@H]23)OCO4)cc(OC)c1O` [Etoposide], for which the IC50 in [1] stood at 1200 nM; in data set [4] it was 2000 nM; in data set [5] it was 1100 nM; in data set [6], 3000 nM; in data set [7], 1000 ± 290 nM; in [9], 520 nM. Also, the half-maximal inhibitory concentration (IC50) in [10] stood at 3400 nM; in data set [11] it was 280 nM; in data set [12] it was 1200 nM; in [13], 930 nM. For the same molecule, the IC50 at 72 h came to 1100 ± 330 nM in data set [2] and 460 ± 75 nM in [14]. The results for the “Rel. Res. (relative resistance)” value in data set [3] and in data set [15] were 1.1 and 0.46, respectively. The “RR: Relative Resistance” value came to 4.7 in data set [4]; 2.5 in data set [6]; 2.1 in [9]; 3.1 in data set [10]; 0.79 in [13]. In addition, the “resistance of cells” value in data set [8] is listed as “did not display remarkable resistance”.
As for `CC(=O)O[C@H]1C(=O)[C@@]2(C)[C@H]([C@H](OC(=O)c3ccccc3)[C@]3(O)C[C@H](OC(=O)[C@H](O)[C@@H](NC(=O)c4ccccc4)c4ccccc4)C(C)=C1C3(C)C)[C@]1(OC(C)=O)CO[C@@H]1C[C@@H]2O` [Paclitaxel], the IC50 in [1] was 1 nM; in [4], 81 nM; in [5], 1.1 nM; in data set [6] it was 1.8 nM; in data set [9] it was 57 nM; in data set [10] it was 2.1 nM. Further, the figures for the half-maximal inhibitory concentration (IC50) in data set [11], in data set [12] and in [13] were 41 nM, 2 nM and 4.2 nM, respectively. For the same molecule, the “RR: Relative Resistance” value is listed as 2.0 in [4]; 0.92 in [6]; 1.4 in [9]; 1.9 in data set [10]; 4.2 in data set [13].
Take `CC[C@@]1(O)C(=O)OCc2c1cc1n(c2=O)Cc2cc3c(CN(C)C)c(O)ccc3nc2-1` [Topotecan]: the IC50 was 63 nM in data set [1]; 2900 nM in [4]; 34 nM in data set [5]; 1100 nM in data set [6]; 210 ± 40 nM in data set [7]; 250 nM in data set [9]. The IC50 in [11] was found to be 69 nM; in data set [12] it was 75 nM; in [13], 360 nM. Moreover, the figures for the IC50 at 72 h in data set [2] and in data set [14] were 96 ± 22 nM and 190 ± 50 nM, respectively. In addition, the “resistance of cells” value in data set [8] was “did not display remarkable resistance”.
On to `CC[C@]1(O)C[C@H]2CN(CCc3c([nH]c4ccccc34)[C@@](C(=O)OC)(c3cc4c(cc3OC)N(C=O)[C@H]3[C@@](O)(C(=O)OC)[C@H](OC(C)=O)[C@]5(CC)C=CCN6CC[C@]43[C@@H]65)C2)C1` [Vincristine], for which the IC50 in data set [1] was determined as 0.7 nM; in [4] it was 25 nM; in data set [5], 2 nM; in data set [6] it was 7 nM; in data set [9] it was 11 nM; in [10], 9.3 nM. Moreover, the IC50 in [11] stood at 15 nM; in data set [12] it was 13 nM; in data set [13], 6.9 nM. Besides, the “RR: Relative Resistance” value was 1.7 in [4]; 0.56 in data set [6]; 0.77 in [9]; 4.7 in data set [10]; 9.9 in [13].
